Values joined by “and” are separate entries in the source; they are usually repeats but may differ in a detail not shown here. Equal values may be shown once.

This test has as its system whole blood. The test can be described thus: Calcium Gluconate (CG) Powder Test: coagulation of whole blood with varying CG amounts. The protocol: A standard amount of ACD-A anticoagulant and Kaoiln powder per 1 ml of whole blood was used • 2 ml of ACD-A for 15 ml blood=0.133 ml ACD-A/1 ml blood • 28 mg Kaolin powder for 15 ml blood=1.87 mg Kaolin/1 ml blood
Different amounts of CG where tested-CG particle size after sifting is 125 micron • 20 mg for 15 ml of blood=1.33 mgCG/1 ml blood • 50 mg for 15 ml of blood=3.33 mgCG/1 ml blood • 85 mg for 15 ml of blood=5.66 mgCG/1 ml blood • 110 mg for 15 ml of blood=7.33 mgCG/1 ml blood • 140 mg for 15 ml of blood=9.33 mgCG/1 ml blood
Coagulation time and clot structure strength were documented. Blood samples of 5 different volunteers were used.

Where [1] appears, read: 20 mg CG for 15 ml blood, Average of 5 volunteers.
The mark [2] stands for this setting: 50 mg CG for 15 ml blood, Average of 5 volunteers.
The mark [3] stands for this setting: 85 mg CG for 15 ml blood, Average of 5 volunteers.
The mark [4] stands for this setting: 110 mg CG for 15 ml blood, Average of 5 volunteers.
[5] abbreviates: 140 mg CG for 15 ml blood, Average of 5 volunteers.

On to Calcium Gluconate [CG], for which the Coagulation time (20 mg CG for 15 ml blood, 2 ml ACD-A, 28 mg Kaolin, individual volunteers #1-#5, good time is under 6 minutes) was 17 and 14 and 12 and 14.5 and 15; the Coagulation time under setting [1] is 14.5; the Coagulation time (50 mg CG for 15 ml blood, 2 ml ACD-A, 28 mg Kaolin, individual volunteers #1-#5, good time is under 6 minutes) is 6.7 and 5.4 and 6 and 6.6 and 6.8; the Coagulation time under setting [2] was determined as 6.3; the Coagulation time (85 mg CG for 15 ml blood, 2 ml ACD-A, 28 mg Kaolin, individual volunteers #1-#5, good time is under 6 minutes) was 4.8 (2×) and 4.6 (2×) and 4.7; the Coagulation time under setting [3] is on record as 4.88. Also, the Coagulation time runs as follows: (110 mg CG for 15 ml blood, 2 ml ACD-A, 28 mg Kaolin, individual volunteers #1-#5, good time is under 6 minutes) 4.7 and 5.2 and 4.6 and 4.9 and 5; under setting [4], 4.7; (140 mg CG for 15 ml blood, 2 ml ACD-A, 28 mg Kaolin, individual volunteers #1-#5, good time is under 6 minutes) 4.8 and 4.7 and 5 and 5.2 and 4.9; under setting [5], 4.92. Also, the Clot strength entry is, setting by setting: under setting [1], “Low”; (20 mg CG for 15 ml blood, individual volunteers, visual) “Low”; under setting [2], “Medium”; (50 mg CG for 15 ml blood, individual volunteers, visual) “Medium”; under setting [3], “Strong”; (85 mg CG for 15 ml blood, individual volunteers, visual) “Strong”. The Clot strength entry is “Strong” under setting [4]; “Strong” (110 mg CG for 15 ml blood, individual volunteers, visual); “Strong” under setting [5]; “Strong” (140 mg CG for 15 ml blood, individual volunteers, visual).

The values are drawn from patent US12364713B2, “Coagulation mold, a kit and a method for preparing a coagulated blood mass” (Reddress Ltd., priority 2022, dated 2025).
